Molecular target: T1, human M4 muscarinic acetylcholine receptor (Homo sapiens, UniProt P08173)
T1 construct: expressed in transfected cells; host or cells: CHO-K1
T1 sequence (P08173 1-479): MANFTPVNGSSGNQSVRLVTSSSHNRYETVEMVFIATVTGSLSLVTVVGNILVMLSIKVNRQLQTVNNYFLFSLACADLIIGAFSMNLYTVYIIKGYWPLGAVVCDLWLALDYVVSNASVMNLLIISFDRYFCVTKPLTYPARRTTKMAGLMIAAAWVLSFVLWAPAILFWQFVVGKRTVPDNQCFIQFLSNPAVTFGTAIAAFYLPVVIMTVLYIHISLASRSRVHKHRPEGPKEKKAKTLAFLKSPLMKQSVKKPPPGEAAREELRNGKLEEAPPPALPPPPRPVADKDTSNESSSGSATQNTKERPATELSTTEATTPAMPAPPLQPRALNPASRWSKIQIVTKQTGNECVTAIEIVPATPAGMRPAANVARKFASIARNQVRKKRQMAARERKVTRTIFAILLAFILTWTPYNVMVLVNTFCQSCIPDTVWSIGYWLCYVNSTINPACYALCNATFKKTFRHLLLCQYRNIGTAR
Test: human FLIPR-based M4 PAM assay (Ca2+ mobilization, CHO-K1 cells with human M4 receptor and Gαqi5)
Format: cell-based
Conditions: acetylcholine at 20% of maximum response, read-out: M4 PAM IP
How it was run: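 Calcium-mobilization (FLIPR) readout in dye-loaded CHO-K1 cells co-expressing human M4 receptor and Gαqi5. Potentiation measured against acetylcholine at a concentration giving 20% of maximal response, with an optional 70% addition; the reported value is the curve inflection point from a 4-parameter logistic fit.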

Compound | EC50 [µM]
Cc1c(N2CCC(Oc3ccc4c(c3)COC4)CC2)nc2c(c1C)C(=O)N([C@@H](C)CO)C2 [Example 266D, (S)-2-(4-((1,3-dihydro-2-benzofuran-5-yl)oxy)piperidin-1-yl)-6-(1-hydroxypropan-2-yl)-3,4-dimethyl-6,7-dihydro-5H-pyrrolo[3,4-b]pyridin-5-one] | 0.043
CCc1cc2c(nc1N1CC[C@H](OCC3(C)CC3)[C@@H](F)C1)CN(CCO)C2=O [Example 266E, 3-ethyl-2-((3S,4S)-3-fluoro-4-((1-methylcyclopropyl)methoxy)piperidin-1-yl)-6-(2-hydroxyethyl)-6,7-dihydro-5H-pyrrolo[3,4-b]pyridin-5-one] | 0.159
CCc1cc2c(nc1N1CCC(Oc3ccc4c(c3)CCOC4)CC1)CN(CCO)C2=O [Example 266F, 3-ethyl-6-(2-hydroxyethyl)-2-(4-(isochroman-6-yloxy)piperidin-1-yl)-6,7-dihydro-5H-pyrrolo[3,4-b]pyridin-5-one] | 0.057
Cc1c(N2CC[C@H](OCC3(C)CC3)[C@@H](F)C2)nc2c(c1C)C(=O)N(CCO)C2 [Example 266G, 2-((3S,4S)-3-fluoro-4-((1-methylcyclopropyl)methoxy)piperidin-1-yl)-6-(2-hydroxyethyl)-3,4-dimethyl-6,7-dihydro-5H-pyrrolo[3,4-b]pyridin-5-one] | 0.069
Cc1c(N2CCC(OCC3(C)CC3)CC2)nc2c(c1C)C(=O)N(CCO)C2 [Example 267, 6-(2-hydroxyethyl)-3,4-dimethyl-2-(4-((1-methylcyclopropyl)methoxy)piperidin-1-yl)-6,7-dihydro-5H-pyrrolo[3,4-b]pyridin-5-one] | 0.034
CCc1cc2c(nc1N1CCC(OCC3(C)CC3)CC1)CN(CCO)C2=O [Example 268, 3-ethyl-6-(2-hydroxyethyl)-2-(4-((1-methylcyclopropyl)methoxy)piperidin-1-yl)-6,7-dihydro-5H-pyrrolo[3,4-b]pyridin-5-one] | 0.087
COc1ccc(OC2CCN(c3nc4c(cc3C)C(=O)N(C3CC3)C4)CC2)cn1 [Example 269, 6-Cyclopropyl-2-(4-((6-methoxypyridin-3-yl)oxy)piperidin-1-yl)-3-methyl-6,7-dihydro-5H-pyrrolo[3,4-b]pyridin-5-one] | 0.065
COc1ccc(OC2CCN(c3nc4c(cc3C)C(=O)NC4CO)CC2)cn1 (stereo not shown) [Example 270, 7-(Hydroxymethyl)-2-(4-((6-methoxypyridin-3-yl)oxy)piperidin-1-yl)-3-methyl-6,7-dihydro-5H-pyrrolo[3,4-b]pyridin-5-one] | 0.048
Cc1cc2c(nc1N1CCC(Oc3ccc4c(cnn4C)c3)CC1)CN(CO)C2=O [Example 272, 6-(Hydroxymethyl)-3-methyl-2-(4-((1-methyl-1H-indazol-5-yl)oxy)piperidin-1-yl)-6,7-dihydro-5H-pyrrolo[3,4-b]pyridin-5-one] | 0.395
COc1ccc(OC2CCN(c3nc4c(cc3C)C(=O)N(C)C4(CO)CO)CC2)cn1 [Example 274, 7,7-Bis(hydroxymethyl)-2-(4-((6-methoxpyridin-3-yl)oxy)piperidin-1-yl)-3,6-dimethyl-6,7-dihydro-5H-pyrrolo[3,4-b]pyridin-5-one] | 1.16
Cc1cc2c(nc1N1CCC(Oc3ccccc3)CC1)[C@H](CO)N(C)C2=O [Example 275, (R)-7-(hydroxymethyl)-3,6-dimethyl-2-(4-phenoxypiperidin-1-yl)-6,7-dihydro-5H-pyrrolo[3,4-b]pyridin-5-one] | 3.97
Cc1cc2c(nc1N1CCC(Oc3ccccc3)CC1)[C@@H](CO)N(C)C2=O [Example 276, (S)-7-(hydroxymethyl)-3,6-dimethyl-2-(4-phenoxypiperidin-1-yl)-6,7-dihydro-5H-pyrrolo[3,4-b]pyridin-5-one] | 0.145
Cc1cc2c(nc1N1CC[C@@H](Oc3ccc4c(c3)COC4)[C@@H](F)C1)[C@H](CO)N(C)C2=O [Example 277, (R)-2-((3S,4R)-4-((1,3-dihydro-2-benzofuran-5-yl)oxy)-3-fluoropiperidin-1-yl)-7-(hydroxymethyl)-3,6-dimethyl-6,7-dihydro-5H-pyrrolo[3,4-b]pyridin-5-one] | 3.4
Cc1cc2c(nc1N1CC[C@@H](Oc3ccc4c(c3)COC4)[C@@H](F)C1)[C@@H](CO)N(C)C2=O [Example 278, (S)-2-((3S,4R)-4-((1,3-dihydro-2-benzofuran-5-yl)oxy)-3-fluoropiperidin-1-yl)-7-(hydroxymethyl)-3,6-dimethyl-6,7-dihydro-5H-pyrrolo[3,4-b]pyridin-5-one] | 0.019

Results, then the molecule that gave them:

EC50 [µM] | Compound
0.102 | CCc1cc2c(nc1N1CCC(Oc3ccc4c(c3)COCC4)CC1)CN(CCO)C2=O [Example 267A, 3-ethyl-6-(2-hydroxyethyl)-2-(4-(isochroman-7-yloxy)piperidin-1-yl)-6,7-dihydro-5H-pyrrolo[3,4-b]pyridin-5-one]
0.08 | Cc1c(N2CCC(OCC3CCC3)CC2)nc2c(c1C)C(=O)N(CCO)C2 [Example 267B, 2-(4-(cyclobutylmethoxy)piperidin-1-yl)-6-(2-hydroxyethyl)-3,4-dimethyl-6,7-dihydro-5H-pyrrolo[3,4-b]pyridin-5-one]
0.109 | CO[C@@H]1Cc2ccc(OC3CCN(c4nc5c(c(C)c4C)C(=O)N(CCO)C5)CC3)cc2C1 [Example 267C, (R)-6-(2-hydroxyethyl)-2-(4-((2-methoxy-2,3-dihydro-1H-inden-5-yl)oxy)piperidin-1-yl)-3,4-dimethyl-6,7-dihydro-5H-pyrrolo[3,4-b]pyridin-5-one]
0.087 | CO[C@H]1Cc2ccc(OC3CCN(c4nc5c(c(C)c4C)C(=O)N(CCO)C5)CC3)cc2C1 [Example 267D, (S)-6-(2-hydroxyethyl)-2-(4-((2-methoxy-2,3-dihydro-1H-inden-5-yl)oxy)piperidin-1-yl)-3,4-dimethyl-6,7-dihydro-5H-pyrrolo[3,4-b]pyridin-5-one]
0.069 | Cc1cc2c(nc1N1CC[C@@H](Oc3ccc4c(cnn4C)c3)[C@@H](F)C1)CN(CCO)C2=O [Example 267E, 2-((3S,4R)-3-fluoro-4-((1-methyl-1H-indazol-5-yl)oxy)piperidin-1-yl)-6-(2-hydroxyethyl)-3-methyl-6,7-dihydro-5H-pyrrolo[3,4-b]pyridin-5-one]
0.017 | Cc1c(N2CC[C@@H](OCC3(C)CC3)[C@H](F)C2)nc2c(c1C)C(=O)N(CCO)C2 [Example 267F, 2-((3R,4R)-3-fluoro-4-((1-methylcyclopropyl)methoxy)piperidin-1-yl)-6-(2-hydroxyethyl)-3,4-dimethyl-6,7-dihydro-5H-pyrrolo[3,4-b]pyridin-5-one]
0.169 | CCc1cc2c(nc1N1CCC(Oc3ccc4cnn(C)c4c3)CC1)CN(CCO)C2=O [Example 268A, 3-ethyl-6-(2-hydroxyethyl)-2-(4-((1-methyl-1H-indazol-6-yl)oxy)piperidin-1-yl)-6,7-dihydro-5H-pyrrolo[3,4-b]pyridin-5-one]
0.063 | Cc1c(N2CCC(Oc3ccc4c(c3)COCC4)CC2)nc2c(c1C)C(=O)N(CCO)C2 [Example 268B, 6-(2-hydroxyethyl)-2-(4-(isochroman-7-yloxy)piperidin-1-yl)-3,4-dimethyl-6,7-dihydro-5H-pyrrolo[3,4-b]pyridin-5-one]
0.053 | Cc1cc2c(nc1N1CCC(Oc3ccc4c(c3)COC4)CC1)CN([C@H](C)CO)C2=O [Example 268C, (R)-2-(4-((1,3-dihydro-2-benzofuran-5-yl)oxy)piperidin-1-yl)-6-(1-hydroxypropan-2-yl)-3-methyl-6,7-dihydro-5H-pyrrolo[3,4-b]pyridin-5-one]
0.028 | Cc1cc2c(nc1N1CCC(Oc3ccc4c(c3)COC4)CC1)CN([C@@H](C)CO)C2=O [Example 268D, (S)-2-(4-((1,3-dihydro-2-benzofuran-5-yl)oxy)piperidin-1-yl)-6-(1-hydroxypropan-2-yl)-3-methyl-6,7-dihydro-5H-pyrrolo[3,4-b]pyridin-5-one]
0.068 | Cc1c(N2CC[C@@H](Oc3ccc4c(cnn4C)c3)[C@@H](F)C2)nc2c(c1C)C(=O)N(CCO)C2 [Example 268E, 2-((3S,4R)-3-fluoro-4-((1-methyl-1H-indazol-5-yl)oxy)piperidin-1-yl)-6-(2-hydroxyethyl)-3,4-dimethyl-6,7-dihydro-5H-pyrrolo[3,4-b]pyridin-5-one]
0.039 | Cc1c(N2CC[C@@H](OCC3(C)CC3)[C@@H](F)C2)nc2c(c1C)C(=O)N(CCO)C2 [Example 268F, 2-((3S,4R)-3-fluoro-4-((1-methylcyclopropyl)methoxy)piperidin-1-yl)-6-(2-hydroxyethyl)-3,4-dimethyl-6,7-dihydro-5H-pyrrolo[3,4-b]pyridin-5-one]
30 | Cc1cc2c(nc1N1CCC(Oc3cnc4c(c3)COC4)CC1)[C@H](CO)N(C)C2=O [Example 277A, (R)-2-(4-((5,7-dihydrofuro[3,4-b]pyridin-3-yl)oxy)piperidin-1-yl)-7-(hydroxymethyl)-3,6-dimethyl-6,7-dihydro-5H-pyrrolo[3,4-b]pyridin-5-one]
0.076 | Cc1cc2c(nc1N1CCC(Oc3cnc4c(c3)COC4)CC1)[C@@H](CO)N(C)C2=O [Example 278A, (S)-2-(4-((5,7-dihydrofuro[3,4-b]pyridin-3-yl)oxy)piperidin-1-yl)-7-(hydroxymethyl)-3,6-dimethyl-6,7-dihydro-5H-pyrrolo[3,4-b]pyridin-5-one]

Reference: patent US10329289B2, “6,7-dihydro-5H-pyrrolo[3,4-B]pyridin-5-one allosteric modulators of the M4 muscarinic acetylcholine receptor” (Merck Sharp & Dohme Corp., priority 2015, dated 2019)
